Laboratory results from patent publication US9457087B2, “Stable crystal modifications of DOTAP chloride” (Merck Patent GmbH, priority 2004, dated 2016).

How the values were obtained:
[1] = Storage stability of crystalline DOTAP chlorides (HPLC purity and content); format: physicochemical; settings: 25° C., 60% relative humidity, exclusion of air
Experimental: In order to determine the stability of crystalline DOTAP chlorides, the substances are stored together with comparative samples at 25° C. and 60% relative humidity with exclusion of air. The remaining content of DOTAP chloride is measured at periodic intervals and quoted in comparison to the initial value.
The purity and content of DOTAP chloride are determined by means of HPLC.

[2] = DSC principal phase transition temperatures of multilamellar liposomes in water; format: physicochemical; settings: heating cycles, lipid 0.1 g/ml, 1° C./min
Experimental: Differential scanning caliometry (DSC) measurements are carried out on multilamellar liposomes in water. Liposomes are prepared by the thin-film method from the calculated amounts of racemic or enantiomerically pure DOTAP chloride. The lipid concentration here is in each case 0.1 g/ml. Suitable amounts of these dispersions are then introduced into sealable aluminium crucibles and measured using a 204 Phoenix calorimeter (Netzsch, Seib, Germany). In each case, three successive heating/cooling runs from −50° C. to +20° C. are carried out at 1° C./min.
For all three DOTAP chloride variants, phase transition temperatures below 0° C. are found. For the cooling cycles, this is in each case at −23° C. to −24° C. Differences between racemic and enantiomerically pure DOTAP chloride are in each case evident in the heating cycles. […] (see FIG. 6).

[3] = Solubility in acetonitrile; format: physicochemical; settings: room temperature
[4] = Hygroscopicity at normal atmospheric humidity; format: physicochemical; settings: normal atmospheric humidity levels
[5] = storage under protective gas at −20° C.; guaranteed by manufacturer; cited from earlier work

For `CCCCCCCC/C=C\CCCCCCCC(=O)OCC(C[N+](C)(C)C)OC(=O)CCCCCCC/C=C\CCCCCCCC.[Cl-]` (racemic) [(R,S)-DOTAP chloride crystalline type I, N,N,N-trimethyl-2,3-bis[[(9Z)-1-oxo-9-octadecenyl]oxy]-1-propanaminium chloride], the “% by weight (content of DOTAP chloride)” value ([1]; exposure time 0 months) was 98.6%, the “Area-% (HPLC purity)” value ([1]; exposure time 0 months) was 100% and the “% by weight (content of DOTAP chloride)” value ([1]; exposure time 1 month) was 97.%. For the same compound, the “Area-% (HPLC purity)” value ([1]; exposure time 1 month) was 100.0%, the “% by weight (content of DOTAP chloride)” value ([1]; exposure time 2 months) was 97.9% and the “Area-% (HPLC purity)” value ([1]; exposure time 2 months) was 100.0%. The “% by weight (content of DOTAP chloride)” value ([1]; exposure time 3 months) was 97.2%, the “Area-% (HPLC purity)” value ([1]; exposure time 3 months) was 100.0% and the “% by weight (content of DOTAP chloride)” value ([1]; exposure time 6 months) was 98.2%. For the same compound, the “Area-% (HPLC purity)” value ([1]; exposure time 6 months) was 100.0%, the “% by weight (content of DOTAP chloride)” value ([1]; exposure time 12 months) was 98.7% and the “Area-% (HPLC purity)” value ([1]; exposure time 12 months) was 100.0%.

For `CCCCCCCC/C=C\CCCCCCCC(=O)OCC(C[N+](C)(C)C)OC(=O)CCCCCCC/C=C\CCCCCCCC.[Cl-]` (racemic) [racemate, N,N,N-trimethyl-2,3-bis[[(9Z)-1-oxo-9-octadecenyl]oxy]-1-propanaminium chloride], the “endothermic phase transition temperature” value [2] was −17.5 °C and the solubility in acetonitrile [3] was “virtually insoluble”.

With `CCCCCCCC/C=C\CCCCCCCC(=O)OC[C@@H](C[N+](C)(C)C)OC(=O)CCCCCCC/C=C\CCCCCCCC.[Cl-]` [(2R)-DOTAP chloride] the “endothermic phase transition temperature” value [2] was “around −12.5 °C”.

In the case of `CCCCCCCC/C=C\CCCCCCCC(=O)OC[C@H](C[N+](C)(C)C)OC(=O)CCCCCCC/C=C\CCCCCCCC.[Cl-]` [(2S)-DOTAP], the “endothermic phase transition temperature” value [2] is reported as “around −12.5 °C”.

In the case of `CCCCCCCC/C=C\CCCCCCCC(=O)OCC(C[N+](C)(C)C)OC(=O)CCCCCCC/C=C\CCCCCCCC.[Cl-]` (stereo not drawn) [amorphous DOTAP chloride], the hygroscopicity [4] is listed as “extremely hygroscopic” and the shelf life [5] is listed as “about 6 months”.
